The text below walks through data of patent publication US9738637B2, “Histone demethylase inhibitors” (Quanticel Pharmaceuticals, Inc., priority 2013, dated 2017).

In one test the target is Jarid1A (Homo sapiens (Human), UniProt P29375). Put plainly: Jarid1A in vitro enzyme inhibition assay (TR-FRET). The class given is biochemical. Particulars: H3K4me3-biotin peptide. As for the experimental part: (§1) This assay determines the ability of a test compound to inhibit Jarid1A, Jarid1B, JMJD2C, and JMJD2A demethylase activity.
The enzymatic assay of Jarid1A activity is based upon Time Resolved-Fluorescence Resonance Energy Transfer (TR-FRET) detection.
The assay reaction was initiated by the following: 2 μl of the mixture of 900 nM H3K4me3-biotin labeled peptide and 6 μM alpha-ketoglutaric acid with 2 μl of 11-point serial diluted inhibitor in 3% DMSO was added to each well of plate, followed by the addition of 2 μl of 3 nM Jarid1A to initiate the reaction. The reaction mixture was incubated at room temperature for 30 minutes, and terminated by the addition of 6 μl of 5 mM EDTA in LANCE detection buffer containing 50 nM Phycolink Streptavidin-allophycocyanin and 2 nM Europium-anti-H3K4me1-2 antibody.
(§2) The ability of the compounds disclosed herein to inhibit demethylase activity was quantified and the respective IC50 value was determined.
(Time-resolved FRET reads energy transfer from a long-lived donor to a nearby acceptor.)

A further test concerns the target Jarid1B (Homo sapiens (Human), UniProt Q9UGL1). Put plainly: Jarid1B in vitro enzyme inhibition assay (TR-FRET). The class given is biochemical. Particulars: TR-FRET, H3K4me3-biotin peptide; read-out: IC50 Jarid1B. On the procedure:
as §1
The reaction mixture was incubated at room temperature for 30 minutes, and terminated by the addition of 6 μl of 5 mM EDTA in LANCE detection buffer containing 50 nM Phycolink Streptavidin-allophycocyanin and 2 nM Europium-anti-H3K4me1-2 antibody.
as §2

For a further test, the target named is JMJD2C (Homo sapiens (Human), UniProt Q9H3R0). Put plainly: JMJD2C in vitro enzyme inhibition assay (TR-FRET). The class given is biochemical. To be noted: TR-FRET, H3K9me3-biotin peptide; read-out: IC50 JNJD2C. As for the experimental part:
as §1
Reaction product was determined quantitatively by TR-FRET after the addition of detection reagent Phycolink Streptavidin-allophycocyanin (Prozyme) and Europium-anti-di-methylated histone H3 lysine 9 (H3K9me2) antibody (PerkinElmer) in the presence of 5 mM EDTA in LANCE detection buffer (PerkinElmer) at a final concentration of 50 nM and 1 nM, respectively.
The assay reaction was initiated by the following: 2 μl of the mixture of 900 nM H3K9me3-biotin labeled peptide and 6 μM alpha-ketoglutaric acid with 2 μl of 11-point serial diluted inhibitor in 3% DMSO were added to each well of the plate, followed by the addition of 2 μl of 0.9 nM JMJD2C to initiate the reaction. The reaction mixture was incubated at room temperature for 30 minutes, and terminated by the addition of 6 μl of 5 mM EDTA in LANCE detection buffer containing 100 nM Phycolink Streptavidin-allophycocyanin and 2 nM Europium-anti-H3K9me2 antibody.
as §2

The test system of another test is KDM5A and KDM5B. Put plainly: In vitro cell-based assay, ZR-75-1 cell line: tri-methyl H3K4 immuno-blotting (cellular inhibition of KDM5A/B). To be noted: ZR-75-1 breast cancer cells, 72 hours, read-out: IC50 ZR-75-1 cell-MOA. The source says: This quantitative immuno-blotting assay measures the amount tri-methylated histone H3 at amino acid Lysine number 4, a specific substrate […] of the direct enzymatic activity of the histone demethylases KDM5A and KDM5B from extracts of the ZR-75-1 breast cancer cell line.
This assay is a fluorometric immunoassay for the quantification of tri-methyl H3K4 extracted from cells treated with test compound and is used as a measure of the cellular inhibition of KDM5A/B.
Cells were left in the presence of test compound for 72 hours. Extracts were prepared containing all of the cellular histone material using detergent based lysis and sonication methods. These lysates were subsequently normalized for total protein content using a colorimetric bicinchonic acid assay (MicroBCA Pierce/Thermo Scientific). Normalized cell extracts were then subjected to typical immuno-blotting procedures using NuPage reagents (Life Technologies). Electrophoretically separated histones were then transferred and immobilized using polyvinylidene difluoride membrane (Immobilon-FL Millipore). The amount of tri-methylated lysine 4 of histone H3 was detected using an antibody specific to the tri-methylated state (Cell Signaling Technologies) and quantified on an infrared imager using a densitometry software package (Odyssey CLx, Image Studio, Li-Cor). This background subtracted densitometry value was reported as a ration of the GAPDH amount for that sample and then calculated as a percent of the DMSO treated sample. The software package XL-fit (IDBS) was then used to calculate a relative IC50 value for the dilution series of a given test compound according to the equation: fit=(D+((Vmax*(x^n))/((x^n)+(Km^n)))).

Sequence of JMJD2C (Q9H3R0 2-372): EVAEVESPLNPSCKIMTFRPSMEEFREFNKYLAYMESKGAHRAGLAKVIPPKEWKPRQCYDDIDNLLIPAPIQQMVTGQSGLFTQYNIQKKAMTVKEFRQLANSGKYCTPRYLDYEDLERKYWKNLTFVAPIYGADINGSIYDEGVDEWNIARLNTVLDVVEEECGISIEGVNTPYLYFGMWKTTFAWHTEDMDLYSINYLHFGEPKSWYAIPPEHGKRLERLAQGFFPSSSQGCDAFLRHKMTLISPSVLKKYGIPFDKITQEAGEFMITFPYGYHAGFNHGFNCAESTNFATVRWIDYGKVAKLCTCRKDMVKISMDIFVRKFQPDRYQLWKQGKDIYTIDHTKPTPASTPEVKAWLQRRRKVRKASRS
Sequence of Jarid1B (Q9UGL1 2-751): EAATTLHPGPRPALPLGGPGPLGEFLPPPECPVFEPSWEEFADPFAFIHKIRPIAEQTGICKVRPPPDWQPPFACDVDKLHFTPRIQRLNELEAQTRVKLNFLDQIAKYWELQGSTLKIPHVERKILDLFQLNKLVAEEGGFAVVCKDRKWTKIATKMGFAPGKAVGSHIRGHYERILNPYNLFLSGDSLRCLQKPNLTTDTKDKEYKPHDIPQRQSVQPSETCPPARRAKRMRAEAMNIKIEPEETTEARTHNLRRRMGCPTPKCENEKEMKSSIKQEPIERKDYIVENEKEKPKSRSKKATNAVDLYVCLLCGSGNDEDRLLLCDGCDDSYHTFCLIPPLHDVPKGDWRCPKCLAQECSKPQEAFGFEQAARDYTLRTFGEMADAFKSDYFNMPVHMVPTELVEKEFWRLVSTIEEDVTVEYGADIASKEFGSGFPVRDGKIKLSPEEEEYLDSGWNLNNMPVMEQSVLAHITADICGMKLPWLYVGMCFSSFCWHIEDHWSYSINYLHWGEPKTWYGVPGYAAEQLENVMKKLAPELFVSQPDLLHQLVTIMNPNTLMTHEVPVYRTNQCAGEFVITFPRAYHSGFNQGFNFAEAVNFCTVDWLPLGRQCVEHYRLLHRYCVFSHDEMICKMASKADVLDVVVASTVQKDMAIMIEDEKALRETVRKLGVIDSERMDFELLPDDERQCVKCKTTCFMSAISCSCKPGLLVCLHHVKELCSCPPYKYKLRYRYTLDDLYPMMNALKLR
Sequence of Jarid1A (P29375 1-1090): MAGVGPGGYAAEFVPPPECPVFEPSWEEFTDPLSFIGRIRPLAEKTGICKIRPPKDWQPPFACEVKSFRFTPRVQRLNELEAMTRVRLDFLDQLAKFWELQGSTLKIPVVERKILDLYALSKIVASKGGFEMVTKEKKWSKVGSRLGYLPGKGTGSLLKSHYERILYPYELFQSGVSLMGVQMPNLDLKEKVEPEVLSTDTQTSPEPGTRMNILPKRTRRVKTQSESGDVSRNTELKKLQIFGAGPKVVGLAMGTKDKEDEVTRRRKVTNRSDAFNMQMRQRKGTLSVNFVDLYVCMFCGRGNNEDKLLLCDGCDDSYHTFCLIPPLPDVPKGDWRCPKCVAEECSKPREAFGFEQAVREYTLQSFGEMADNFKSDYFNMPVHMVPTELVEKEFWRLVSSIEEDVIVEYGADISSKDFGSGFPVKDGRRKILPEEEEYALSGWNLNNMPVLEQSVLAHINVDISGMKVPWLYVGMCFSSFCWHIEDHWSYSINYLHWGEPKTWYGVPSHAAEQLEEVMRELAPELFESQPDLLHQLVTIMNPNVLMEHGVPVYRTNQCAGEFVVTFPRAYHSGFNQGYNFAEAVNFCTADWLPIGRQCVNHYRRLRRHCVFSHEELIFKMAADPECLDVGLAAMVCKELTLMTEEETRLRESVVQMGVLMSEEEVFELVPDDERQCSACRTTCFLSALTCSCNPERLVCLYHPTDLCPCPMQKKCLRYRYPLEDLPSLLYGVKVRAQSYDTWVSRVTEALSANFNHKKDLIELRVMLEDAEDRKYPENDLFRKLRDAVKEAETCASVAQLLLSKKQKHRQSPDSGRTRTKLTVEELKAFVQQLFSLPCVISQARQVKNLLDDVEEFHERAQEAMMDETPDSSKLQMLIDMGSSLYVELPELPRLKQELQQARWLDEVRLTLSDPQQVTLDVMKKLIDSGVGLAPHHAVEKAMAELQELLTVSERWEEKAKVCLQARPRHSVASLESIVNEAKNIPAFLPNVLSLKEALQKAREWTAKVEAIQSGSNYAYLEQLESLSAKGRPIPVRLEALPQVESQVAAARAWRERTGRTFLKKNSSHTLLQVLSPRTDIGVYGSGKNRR

What is called IC50 is the concentration at which inhibition is half-maximal. For `O=C(O)c1ccnc2cc(COc3ccc(Cl)cc3)[nH]c12` [Example 64, 2-[(4-chlorophenoxy)methyl]-1H-pyrrolo[3,2-b]pyridine-7-carboxylic acid], the IC50 at Jarid1A was less than 100 nM; at Jarid1B it was less than 100 nM; at JMJD2C, less than 100 nM; with KDM5A and KDM5B, 1000 to 10000 nM.
For the molecule `Cn1nccc1C(O)c1cc2nccc(C(=O)O)c2[nH]1` (racemic) [Example 48, (±)-2-[hydroxy-(2-methylpyrazol-3-yl)methyl]-1H-pyrrolo[3,2-b]pyridine-7-carboxylic acid], the IC50 was less than 100 nM on Jarid1A; less than 100 nM on Jarid1B; less than 100 nM on JMJD2C; more than 10000 nM in the test with KDM5A and KDM5B.
For the molecule `Cc1ccccc1OCc1cc2nccc(C(=O)O)c2[nH]1` [Example 66, 2-[(2-methylphenoxy)methyl]-1H-pyrrolo[3,2-b]pyridine-7-carboxylic acid], the IC50 was less than 100 nM against Jarid1A; less than 100 nM at Jarid1B; 100 to 1000 nM on JMJD2C; more than 10000 nM in the test with KDM5A and KDM5B.
On to `Cc1cccc(OCc2cc3nccc(C(=O)O)c3[nH]2)c1` [Example 74, 2-[(3-methylphenoxy)methyl]-1H-pyrrolo[3,2-b]pyridine-7-carboxylic acid], for which the IC50 is less than 100 nM on Jarid1A; less than 100 nM at Jarid1B; less than 100 nM at JMJD2C; more than 10000 nM with KDM5A and KDM5B.
As to `O=C(O)c1ccnc2cc(COc3ccc(F)cc3)[nH]c12` [Example 60, 2-[(4-fluorophenoxy)methyl]-1H-pyrrolo[3,2-b]pyridine-7-carboxylic acid], the IC50 is less than 100 nM against Jarid1A; less than 100 nM at Jarid1B; 100 to 1000 nM at JMJD2C; 1000 to 10000 nM in the test with KDM5A and KDM5B.
`COC(=O)c1ccnc2cc(Cc3ccccc3)[nH]c12` [Example 6, methyl 2-benzyl-1H-pyrrolo[3,2-b]pyridine-7-carboxylate]: the IC50 was more than 10000 nM at Jarid1A; more than 10000 nM at Jarid1B; more than 10000 nM at JMJD2C; more than 10000 nM in the test with KDM5A and KDM5B.
For the molecule `CC(O)(c1ccccc1)c1cc2nccc(C(=O)O)c2[nH]1` (racemic) [Example 46, (±)-2-(1-hydroxy-1-phenylethyl)-1H-pyrrolo[3,2-b]pyridine-7-carboxylic acid], the IC50 on Jarid1A was less than 100 nM; on Jarid1B it was 100 to 1000 nM; on JMJD2C, 100 to 1000 nM; in the test with KDM5A and KDM5B, more than 10000 nM.
In the case of `O=C(O)c1ccnc2cc(Cc3ccc(Cl)cc3)[nH]c12` [Example 44, 2-[(4-chlorophenyl)methyl]-1H-pyrrolo[3,2-b]pyridine-7-carboxylic acid], the IC50 against Jarid1A is less than 100 nM; at Jarid1B, less than 100 nM; at JMJD2C, 100 to 1000 nM; with KDM5A and KDM5B, more than 10000 nM.
As for `COC(=O)c1ccnc2cc(C(C)(O)c3ccccc3)[nH]c12` (racemic) [Example 45, (±)-methyl 2-(1-hydroxy-1-phenylethyl)-1H-pyrrolo[3,2-b]pyridine-7-carboxylate], in the test on KDM5A and KDM5B, the IC50 is more than 10000 nM.
The same measure, in the same setting: the result for `COC(=O)c1ccnc2cc(C(O)C3CCOCC3)[nH]c12` (racemic) [Example 42, (±)-methyl 2-[hydroxy(oxan-4-yl)methyl]-1H-pyrrolo[3,2-b]pyridine-7-carboxylate] reads more than 10000 nM.
As for `COC(=O)c1ccnc2cc(C(C)(C)O)[nH]c12` [Example 4, methyl 2-(2-hydroxypropan-2-yl)-1H-pyrrolo[3,2-b]pyridine-7-carboxylate], the IC50 against Jarid1A, on Jarid1B and on JMJD2C was more than 10000 nM in each case.
In the case of `COc1ccc(OCc2cc3nccc(C(=O)O)c3[nH]2)cc1` [Example 93, 2-[(4-methoxyphenoxy)methyl]-1H-pyrrolo[3,2-b]pyridine-7-carboxylic acid], the IC50 is 100 to 1000 nM at Jarid1A, less than 100 nM at Jarid1B and 100 to 1000 nM at JMJD2C.
Regarding `CCC(O)c1cc2nccc(C(=O)O)c2[nH]1` (racemic) [Example 26, (±)-2-(1-hydroxypropyl)-1H-pyrrolo[3,2-b]pyridine-7-carboxylic acid], the figures for the IC50 on Jarid1A, at Jarid1B and on JMJD2C were less than 100 nM, 100 to 1000 nM and less than 100 nM, respectively.
Regarding `O=C(O)c1ccnc2cc(CO)[nH]c12` [Example 10, 2-(hydroxymethyl)-1H-pyrrolo[3,2-b]pyridine-7-carboxylic acid], the IC50 against Jarid1A, on Jarid1B and on JMJD2C was 100 to 1000 nM in each case.
As to `O=C(O)c1ccnc2cc(COc3ccc(C(F)(F)F)cc3)[nH]c12` [Example 68, 2-[[4-(trifluoromethyl)phenoxy]methyl]-1H-pyrrolo[3,2-b]pyridine-7-carboxylic acid], the IC50 on Jarid1A was less than 100 nM; at Jarid1B, less than 100 nM; at JMJD2C, 100 to 1000 nM.
Consider `O=C(O)c1ccnc2cc(COc3ccccc3F)[nH]c12` [Example 95, 2-[(2-fluorophenoxy)methyl]-1H-pyrrolo[3,2-b]pyridine-7-carboxylic acid], for which the IC50 against Jarid1A, on Jarid1B and at JMJD2C was 100 to 1000 nM in each case.
In the case of `O=C(O)c1ccnc2cc(CC3CCCCC3)[nH]c12` [Example 54, 2-(cyclohexylmethyl)-1H-pyrrolo[3,2-b]pyridine-7-carboxylic acid], the IC50 was 100 to 1000 nM at Jarid1A, 100 to 1000 nM at Jarid1B and less than 100 nM at JMJD2C.
For the molecule `O=C(O)c1ccnc2cc(C3(O)CCCCC3)[nH]c12` [Example 14, 2-(1-hydroxycyclohexyl)-1H-pyrrolo[3,2-b]pyridine-7-carboxylic acid], the IC50 on Jarid1A, on Jarid1B and on JMJD2C was 100 to 1000 nM in each case.
For `COC(=O)c1ccnc2cc(C(O)c3ccnn3C)[nH]c12` (racemic) [Example 47, (±)-methyl 2-[hydroxy-(2-methylpyrazol-3-yl)methyl]-1H-pyrrolo[3,2-b]pyridine-7-carboxylate], the IC50 in the test with KDM5A and KDM5B was more than 10000 nM.
Turning to `O=C(O)c1ccnc2cc(C3CC3)[nH]c12` [Example 12, 2-cyclopropyl-1H-pyrrolo[3,2-b]pyridine-7-carboxylic acid], the IC50 against Jarid1A is 1000 to 10000 nM; at Jarid1B, 1000 to 10000 nM; at JMJD2C, less than 100 nM.
On to `O=C(O)c1ccnc2cc(C(O)C3CC3)[nH]c12` (racemic) [Example 33, (±)-2-[cyclopropyl(hydroxy)methyl]-1H-pyrrolo[3,2-b]pyridine-7-carboxylic acid], for which the IC50 at Jarid1A, at Jarid1B and at JMJD2C was less than 100 nM in each case.
Turning to `O=C(O)c1ccnc2cc(COc3cc(Cl)cc(Cl)c3)[nH]c12` [Example 83, 2-[(3,5-dichlorophenoxy)methyl]-1H-pyrrolo[3,2-b]pyridine-7-carboxylic acid], the IC50 against Jarid1A was less than 100 nM; on Jarid1B it was less than 100 nM; on JMJD2C it was 100 to 1000 nM.
Regarding `O=C(O)c1ccnc2cc(C(=O)N3CCCC(c4ccccc4)C3)[nH]c12` (centres unmarked) [Example 120, 2-[(3-phenylpiperidyl)carbonyl]pyrrolo-[3,2-b]pyridine-7-carboxylic acid], the IC50 against Jarid1A, on Jarid1B and on JMJD2C was 100 to 1000 nM throughout.
Consider “(±)-methyl 2-(1-hydroxy-2-methylpropyl)-1H-pyrrolo[3,2-b]pyridine-7-carboxylate [Example 30]”, for which the figures for the IC50 against Jarid1A, on Jarid1B and on JMJD2C were 100 to 1000 nM, less than 100 nM and less than 100 nM, respectively.
